According to US20230416271A1, “HETEROARYLQUINAZOLINE COMPOUNDS AS PROTEIN KINASE INHIBITORS” (CHENGDU CYNOGEN BIO-PHARMACEUTICAL TECHNOLOGY CO., LTD., priority 2020, published 2023):

Columns and labels:
Assay type in all cases: biochemical
CDK6/Cyclin D3 = CDK6/Cyclin D3 (Homo sapiens (Human), UniProt Q00534); assay: Kinase activity assay (Caliper Mobility Shift Assay), CDK6/Cyclin D3
Experimental: (§1) The inhibitory effect of compounds against the kinase CDK4/cyclin D3 was detected by Caliper Mobility Shift Assay method. The final concentration of the compounds to be tested was set at 10 concentrations starting from 1 uM by 3-fold serial dilution. 5 μL of compounds at 5-fold final concentration and 10 μL of CDK4/cyclin D3 kinase solution at a final concentration of 10 nM was added to a 384-well reaction plate, respectively. The plate was pre-incubated for 10 min at room temperature (with negative control wells containing 10 uL of kinase buffer and 5 uL of 5% DMSO; positive control wells containing 10 μL of kinase solution and 5 uL of 5% DMSO). The reaction was initiated by adding 10 μL of ATP at a final concentration of 250 uM and the corresponding substrate peptide mixture at room temperature for 150 minutes. 30 uL of stop detection solution containing EDTA was added to stop the kinase reaction. Caliper EZ Reader was used to read the conversion rate. Conversion inhibition rate %=(average conversion rate of positive control %−conversion rate of sample %)/(average conversion rate of positive control %−average conversion rate of negative control %). wherein: negative control wells represent the conversion rate readings of wells without enzymatic activity; positive control wells represent conversion readings for wells with no compound inhibition. The log(inhibitor) vs. response—Variable slope of the analysis software GraphPad Prism 5 was used with log concentration value as the X-axis and the percent inhibition rate as the Y-axis to fit the dose-response curve, the IC50 value of each compound on the enzyme activity was thus obtained. Calculation formula: Y=Bottom+(Top−Bottom)/(1+10^((Log IC50−X)*HillSlope)).
(§2) The IC50 values and inhibitory activities of compounds of the present disclosure on CDK6/Cyclin D3, CDK2/Cyclin A2, and CDK9/cyclin T1 were tested in a similar manner.

CDK4/cyclin D3 = CDK4/cyclin D3 (Homo sapiens (Human), UniProt P11802); assay: Kinase activity assay (Caliper Mobility Shift Assay), CDK4/cyclin D3; conditions: 10 nM kinase, 250 uM ATP
CDK4/cyclin D3, sequence (P11802 whole entry, species assumed): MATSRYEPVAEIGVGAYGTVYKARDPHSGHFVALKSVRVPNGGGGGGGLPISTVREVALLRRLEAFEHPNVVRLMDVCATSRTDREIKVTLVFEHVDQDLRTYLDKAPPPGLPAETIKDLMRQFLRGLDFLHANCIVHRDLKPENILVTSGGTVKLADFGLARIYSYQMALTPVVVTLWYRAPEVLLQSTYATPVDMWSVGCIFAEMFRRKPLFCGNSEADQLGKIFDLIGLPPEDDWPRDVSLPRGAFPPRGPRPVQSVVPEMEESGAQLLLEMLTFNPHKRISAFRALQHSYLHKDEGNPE
CDK4/cyclin D3, sequence (P30281 whole entry partner, species assumed): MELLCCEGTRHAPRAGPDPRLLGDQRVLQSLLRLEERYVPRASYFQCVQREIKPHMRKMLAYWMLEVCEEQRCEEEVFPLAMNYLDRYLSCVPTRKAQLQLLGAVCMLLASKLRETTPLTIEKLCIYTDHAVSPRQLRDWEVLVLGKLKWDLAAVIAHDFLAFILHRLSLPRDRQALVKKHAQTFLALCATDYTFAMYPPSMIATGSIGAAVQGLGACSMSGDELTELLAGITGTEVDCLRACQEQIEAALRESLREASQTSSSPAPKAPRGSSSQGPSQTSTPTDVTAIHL
Experimental: as §1

CDK2/Cyclin A2 = CDK2/Cyclin A2 (Homo sapiens (Human), UniProt P24941); assay: Kinase activity assay (Caliper Mobility Shift Assay), CDK2/Cyclin A2
Experimental: as §1, §2

CDK9/cyclin T1 = CDK9/cyclin T1 (Homo sapiens (Human), UniProt P50750); assay: Kinase activity assay (Caliper Mobility Shift Assay), CDK9/cyclin T1
CDK9/cyclin T1, sequence (P50750 whole entry, species assumed): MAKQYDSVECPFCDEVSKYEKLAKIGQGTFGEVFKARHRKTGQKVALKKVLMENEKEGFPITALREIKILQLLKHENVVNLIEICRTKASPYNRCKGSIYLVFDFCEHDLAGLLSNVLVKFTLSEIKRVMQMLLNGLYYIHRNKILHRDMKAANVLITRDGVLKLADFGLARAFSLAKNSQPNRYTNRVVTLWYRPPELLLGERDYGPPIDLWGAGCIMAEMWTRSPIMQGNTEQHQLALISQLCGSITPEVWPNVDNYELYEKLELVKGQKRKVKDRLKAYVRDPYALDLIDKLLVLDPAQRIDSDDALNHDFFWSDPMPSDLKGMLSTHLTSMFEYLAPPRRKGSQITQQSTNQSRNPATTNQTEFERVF
CDK9/cyclin T1, sequence (O60563 whole entry partner, species assumed): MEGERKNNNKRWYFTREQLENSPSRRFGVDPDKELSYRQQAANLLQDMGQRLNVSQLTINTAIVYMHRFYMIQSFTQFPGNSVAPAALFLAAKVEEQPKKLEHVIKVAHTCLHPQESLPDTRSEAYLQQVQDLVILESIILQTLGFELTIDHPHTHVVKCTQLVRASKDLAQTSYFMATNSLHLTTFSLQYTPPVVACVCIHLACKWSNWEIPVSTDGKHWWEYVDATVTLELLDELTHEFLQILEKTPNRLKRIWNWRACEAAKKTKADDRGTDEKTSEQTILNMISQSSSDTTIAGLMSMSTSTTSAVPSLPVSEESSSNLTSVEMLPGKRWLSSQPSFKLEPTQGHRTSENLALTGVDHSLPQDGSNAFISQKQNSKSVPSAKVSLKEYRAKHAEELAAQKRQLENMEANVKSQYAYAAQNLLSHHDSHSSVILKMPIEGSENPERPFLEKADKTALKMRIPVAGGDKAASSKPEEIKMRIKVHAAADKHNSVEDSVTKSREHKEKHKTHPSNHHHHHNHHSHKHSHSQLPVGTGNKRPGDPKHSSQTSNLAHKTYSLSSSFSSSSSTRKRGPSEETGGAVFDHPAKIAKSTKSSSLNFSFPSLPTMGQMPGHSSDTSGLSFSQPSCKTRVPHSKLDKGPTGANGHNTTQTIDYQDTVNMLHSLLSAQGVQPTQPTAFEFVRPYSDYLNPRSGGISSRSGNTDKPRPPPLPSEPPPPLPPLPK
Experimental: as §1, §2

CDK6/Cyclin D3, sequence (Q00534 whole entry, species assumed): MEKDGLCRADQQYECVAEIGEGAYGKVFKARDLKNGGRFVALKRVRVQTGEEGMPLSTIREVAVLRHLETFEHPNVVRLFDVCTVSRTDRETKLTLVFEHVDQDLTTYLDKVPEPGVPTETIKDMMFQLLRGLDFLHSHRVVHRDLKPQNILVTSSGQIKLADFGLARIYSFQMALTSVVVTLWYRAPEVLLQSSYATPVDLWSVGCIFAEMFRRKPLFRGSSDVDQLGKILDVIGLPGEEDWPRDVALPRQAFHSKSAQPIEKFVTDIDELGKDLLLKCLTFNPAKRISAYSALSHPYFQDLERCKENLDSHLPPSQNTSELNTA
CDK6/Cyclin D3, sequence (P30281 whole entry partner, species assumed): as the sequence (P30281 whole entry partner, species assumed) above

SMILES | IC50 (CDK6/Cyclin D3) [nM] | IC50 (CDK4/cyclin D3) [nM] | IC50 (CDK2/Cyclin A2) [nM] | IC50 (CDK9/cyclin T1) [nM]
CC(C)c1noc2ccc3cnc(N[C@H]4CC[C@H](NC5CCOCC5)CC4)nc3c12 [I.1, (1R,4R)-N^1-(9-isopropylisoxazolo[5,4-h]quinazolin-2-yl)-N^4-(tetrahydro-2H-pyran-4-yl)cyclohexane-1,4-diamine] | 36 | 32 | 42 | 25
CC(C)c1noc2ccc3cnc(N[C@H]4CC[C@H](NC5CCNCC5)CC4)nc3c12 [I.2, (1R,4R)-N^1-(9-isopropylisoxazolo[5,4-h]quinazolin-2-yl)-N^4-(piperidin-4-yl)cyclohexane-1,4-diamine] | 26 | 22 | 12 | 16
CC(C)n1nnc2ccc3cnc(N[C@H]4CC[C@H](NC5CCOCC5)CC4)nc3c21 [II.2, (1R,4R)-N^1-(1-isopropyl-1H-[1,2,3]triazolo[4,5-h]quinazolin-8-yl)-N^4-(tetrahydro-2H-pyran-4-yl)cyclohexane-1,4-diamine] | 22 | 16 | 20 | 8
CC(C)n1nnc2ccc3cnc(N[C@H]4CC[C@H](N5CCN(CC6CCCC6)CC5)CC4)nc3c21 [II.8, N-((1R,4R)-4-(4-(cyclopentylmethyl)piperazin-1-yl)cyclo-hexyl)-1-isopropyl-1H-[1,2,3]triazolo[4,5-h]quinazolin-8-amine] | 37 | 43 | > 500 | 11
CC(C)n1nnc2c(C(F)F)cc3cnc(NC4CCN(S(=O)(=O)C(F)F)CC4)nc3c21 [II.30, 4-(difluoromethyl)-N-(1-((difluoromethyl)sulfonyl)piperidin-4-yl)-1-isopropyl-1H-[1,2,3]triazolo[4,5-h]quinazolin-8-amine] | 6 | 3 | 0.3 | 
CC(C)n1nnc2c(CC(F)(F)F)cc3cnc(NC4CCN(S(C)(=O)=O)CC4)nc3c21 [II.31, 1-isopropyl-N-(1-(methylsulfonyl)piperidin-4-yl)-4-(2,2,2-trifluoro-ethyl)-1H-[1,2,3]triazolo[4,5-h]quinazolin-8-amine] | 2 | 1 | 0.2 | 
C[C@@]1(O)CCC[C@H]1n1nnc2ccc3cnc(NC4CCN(S(C)(=O)=O)CC4)nc3c21 [II.32, (1R,2R)-1-methyl-2-(8-((1-(methylsulfonyl)piperidin-4-yl)amino)-1H-[1,2,3]triazolo[4,5-h]quinazolin-1-yl)cyclopentan-1-ol] | 9 | 5 | 0.2 | 
C[C@@]1(O)CCC[C@H]1n1nnc2c(C(F)F)cc3cnc(NC4CCN(S(C)(=O)=O)CC4)nc3c21 [II.33] | 5 | 3 | 0.3 | 
CC(C)n1nnc2ccc3cnc(NC4CCCNC4)nc3c21 (stereo not shown) [II.34, 1-isopropyl-N-(piperidin-3-yl)-1H-[1,2,3]triazolo[4,5-h]quinazolin-8-amine] | 35 | 55 | 296 | 
CC(C)n1nnc2ccc3cnc(NC4CCC(=O)NC4)nc3c21 (stereo not shown) [II.35, 5-((1-isopropyl-1H-[1,2,3]triazolo[4,5-h]quinazolin-8-yl)amino)piperidin-2-one] | 58 | 50 | 10 | 
CC(C)n1nnc2ccc3cnc(NC4CCCNC4=O)nc3c21 (stereo not shown) [II.36, 3-((1-isopropyl-1H-[1,2,3]triazolo[4,5-h]quinazolin-8-yl)amino)piperidin-2-one] | 446 | 253 | > 500 | 
CC(C)n1nnc2c1-c1nc(NC3CCN(S(C)(=O)=O)CC3)ncc1CC2 [II.37, 1-isopropyl-N-(1-(methylsulfonyl)piperidin-4-yl)-4,5-dihydro-1H-[1,2,3]triazolo[4,5-h]quinazolin-8-amine] | 12 | 4 | 0.5 | 
CC(C)n1nnc2c1-c1nc(NC3CCN(S(=O)(=O)C4CC4)CC3)ncc1CC2 [II.38, N-(1-(cyclopropylsulfonyl)piperidin-4-yl)-1-isopropyl-4,5-dihydro-1H-[1,2,3]triazolo[4,5-h]quinazolin-8-amine] | 7 | 3 | 0.3 | 
CC(C)n1nnc2c1-c1nc(NC3CCN(S(=O)(=O)C(F)F)CC3)ncc1CC2 [II.39, N-(1-((difluoromethyl)sulfonyl)piperidin-4-yl)-1-isopropyl-4,5-dihydro-1H-[1,2,3]triazolo[4,5-h]quinazolin-8-amine] | 10 | 3 | 0.5 | 
